Earlier results as cited in publication PMC10460728 (Journal of Pharmacokinetics and Pharmacodynamics, 2023).

How the values were obtained:
intestinal P-gp = conditions: multiple-dose 600 mg rifampicin, Western blot; cited from earlier work
CYP3A = conditions: multiple oral 600 mg rifampicin; cited from earlier work
CYP3A4 = conditions: cited from earlier work
CYP3A and P-gp = tested on: CYP3A and P-gp; set-up: method as in PMID 33030266; conditions: assumed in model development, verified with clinical DDI studies; cited from earlier work
P-gp and CYP3A = conditions: apixaban; cited from earlier work
[1] = multiple 160 mg doses of enzalutamide, mean (SD)
[2] = with/without enzalutamide 160 mg multiple doses, geometric mean ratio (90% CI)

SMILES: CO[C@H]1/C=C/O[C@@]2(C)Oc3c(C)c(O)c4c(O)c(c(/C=N/N5CCN(C)CC5)c(O)c4c3C2=O)NC(=O)/C(C)=C\C=C\[C@H](C)[C@H](O)[C@@H](C)[C@@H](O)[C@@H](C)[C@H](OC(C)=O)[C@@H]1C [Rifampicin, rifampicin]
- Increase in intestinal P-gp expression (intestinal P-gp): 3.5 fold

SMILES: Cc1ncc2n1-c1ccc(Cl)cc1C(c1ccccc1F)=NC2 [Midazolam, midazolam]
- Decrease in midazolam AUC by rifampicin (CYP3A): more than 90%
- Midazolam AUC ratio with rifampicin (CYP3A): less than 0.1
- AUC without enzalutamide, observed (CYP3A4; mean (SD)): 32.0 (12.8) ng·h/mL
- Cmax without enzalutamide, observed (CYP3A4; mean (SD)): 9.98 (3.17) ng/mL
- AUC with enzalutamide, observed (CYP3A4; [1]): 4.22 (0.784) ng·h/mL
- Cmax with enzalutamide, observed (CYP3A4; [1]): 2.29 (0.868) ng/mL
- AUC ratio, observed (CYP3A4; [2]): 0.14 (0.12–0.17)
- Cmax ratio, observed (CYP3A4; [2]): 0.23 (0.20–0.27)

SMILES: COc1ccc(-n2nc(C(N)=O)c3c2C(=O)N(c2ccc(N4CCCCC4=O)cc2)CC3)cc1 [Apixaban, apixaban]
- Contribution of CYP3A to hepatic metabolism (CYP3A and P-gp): 42%
- Decrease in AUC by rifampicin (P-gp and CYP3A): 54%
